± gives the expanded uncertainty stated by the source.
Assay: molar enthalpy of vaporization or sublimation
Conditions: 298.15 K, drop calorimetry

| molar enthalpy (Crystal) | molar enthalpy (Liquid) | SMILES |
| --- | --- | --- |
| 78.3 ± 3.2 kJ/mol |  | Cc1ccc(C#N)n1C [1,5-dimethyl-2-pyrrolecarbonitrile] |
|  | 65.3 ± 2.8 kJ/mol | N#Cc1ccc[nH]1 [2-cyanopyrrole;] |
